The text below walks through data of patent US20060024661A1, “Modulation of CRF potentiation of NMDA receptor currents via CRF receptor 2” (The Regents of the University of California, priority 2003, published 2006).

In one assay the test system is NMDARs. The conditions noted are these: derived from cell lines; Patneau and Mayer 1990; cited from earlier work.
In the next assay the target is T1, CRF-BP (Homo sapiens, UniProt P24387).
T1 sequence (P24387 25-322): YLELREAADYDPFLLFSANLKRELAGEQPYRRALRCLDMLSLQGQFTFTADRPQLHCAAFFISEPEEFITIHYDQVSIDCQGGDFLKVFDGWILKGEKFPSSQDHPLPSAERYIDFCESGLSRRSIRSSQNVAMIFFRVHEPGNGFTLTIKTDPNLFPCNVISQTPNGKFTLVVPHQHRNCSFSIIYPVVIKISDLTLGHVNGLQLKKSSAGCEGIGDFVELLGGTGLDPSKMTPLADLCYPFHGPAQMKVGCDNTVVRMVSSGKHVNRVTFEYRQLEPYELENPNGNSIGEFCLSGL
The conditions noted are these: in words; cited from earlier work.

Assay [1] has as its system NMDAR-mediated EPSCs in VTA dopamine neurons. Put plainly: NMDAR-mediated EPSCs, whole-cell voltage-clamp in VTA slices. The format is cell-based, mice. The note with it: for potentiation of NMDAR-mediated EPSCs: +40 mV. Here is the method: VTA slices from 21-29 day old C57 mice (Charles River) were prepared as previously described (Ungless et al. (2001). Nature 411: 584-587). Briefly, mice were anesthetized with halothane and then decapitated. A block of tissue containing midbrain was sliced in the horizontal plane (230 μm) in ice-cold low Ca^2+ solution (containing in mM: 126 NaCl, 1.6 KCl, 1.2 NaH2PO4, 1.2 MgCl2, 0.625 CaCl2, 18 NaHCO3 and 11 glucose). Slices were transferred to a holding chamber containing artificial cerebrospinal fluid (ACSF, in mM: 126 NaCl, 1.6 KCl, 1.2 NaH2PO4, 1.2 MgCl2, 2.5 CaCl2, 18 NaHCO3 and 11 glucose) and equilibrated at 31-34° C. for at least 1 h. Picrotoxin (100 μM) was added to the ACSF for recording, to block GABAA receptor-mediated inhibitory postsynaptic potentials. All solutions were aerated with 95% O2/5% CO2, and perfused over the slice at a rate of 2.5 ml/min. Cells were visualized with an upright microscope using infrared differential interference contrast (IR-DIC) illumination and whole-cell voltage-clamp recordings were made with an Axopatch 1D amplifier (Axon Instruments). Electrodes (2-4 MΩ) contained in mM: 117 cesium methansulfonic acid, 20 HEPES, 0.4 EGTA, 2.8 NaCl, 5 TEA-Cl, 2.5 MgATP, 0.25 MgGTP, pH 7.2-7.4, 275-285 mOsm. Dopamine cells were identified by the presence of an Ih current. A bipolar stimulating electrode was placed 100-300 μm rostral to the recording electrode and was used to stimulate excitatory afferents at 0.1 Hz. Neurons were voltage-clamped at +40 mV. Coronal hippocampal slices were also prepared and maintained in a similar manner. Extracellular field potentials were recorded in the CA1 region and evoked by stimulating the stratum radiatum. All drugs were obtained from Sigma, except human/rat CRF (Tocris), Antisauvagine-30 (PolyPeptide) and CP-154,526 (a generous gift from Pfizer). CRF fragment (6-33), ovine CRF, Antisauvagine-30, CP-154,526, U-73122 and Urocortin were first dissolved in DMSO (final concentration 0.1%). EPSCs were filtered at 2 kHz, digitized at 5-10 kHz and stored using Igor Pro software (Wavemetrics). AMPAR-mediated EPSCs were recorded at −70 mV; NMDAR-mediated EPSCs were recorded at +40 mV and measured 20 msec after the stimulation artifact when the EPSC is primarily NMDAR-mediated (11,13). Statistical significance was assessed using ANOVA on 5 min bins of EPSCs, and post hoc Fisher's LSD where appropriate.
We measured excitatory postsynaptic currents (EPSCs) recorded in putative dopamine neurons in midbrain slices from mice. EPSCs were evoked while holding neurons in voltage-clamp at +40 mV; measurements were taken at a time point when the EPSC is purely NMDA-receptor-mediated (see Methods) (Bonci and Malenka (1999). J Neurosci. 19: 3723-3730; Ungless et al. (2001). Nature 411: 584-587). […] To facilitate our subsequent investigation of the effects of CRF, we therefore sought to identify a characteristic that might help us determine, a priori, to which group a particular neuron belongs. […] We noticed that, typically, neurons that responded to CRF had large Ih currents (FIG. 1B). […] Henceforth, all subsequent experiments were conducted on cells with an Ih greater than 100 pA.

Assay [2] has as its system field potentials in hippocampus CA1 (CRF-R1 mediated). Put plainly: Extracellular field potentials in hippocampal slices (CA1). Format: cell-based, mice. An excerpt: A bipolar stimulating electrode was placed 100-300 μm rostral to the recording electrode and was used to stimulate excitatory afferents at 0.1 Hz.
A further assay relates to cAMP in Ltk- cells. The note with it: CRF 1 μM; Lovenberg et al. 1995; cited from earlier work.
Assay [3] has as its system AMPAR-mediated EPSCs in VTA dopamine neurons. Briefly: AMPAR-mediated EPSCs, whole-cell voltage-clamp in VTA slices. Format: cell-based, mice. The note with it: CRF 1 μM; voltage-clamp at -70 mV; n=4. Here is the method: VTA slices from 21-29 day old C57 mice (Charles River) were prepared as previously described (Ungless et al. (2001). Nature 411: 584-587). Briefly, mice were anesthetized with halothane and then decapitated. A block of tissue containing midbrain was sliced in the horizontal plane (230 μm) in ice-cold low Ca^2+ solution (containing in mM: 126 NaCl, 1.6 KCl, 1.2 NaH2PO4, 1.2 MgCl2, 0.625 CaCl2, 18 NaHCO3 and 11 glucose). Slices were transferred to a holding chamber containing artificial cerebrospinal fluid (ACSF, in mM: 126 NaCl, 1.6 KCl, 1.2 NaH2PO4, 1.2 MgCl2, 2.5 CaCl2, 18 NaHCO3 and 11 glucose) and equilibrated at 31-34° C. for at least 1 h. Picrotoxin (100 μM) was added to the ACSF for recording, to block GABAA receptor-mediated inhibitory postsynaptic potentials. All solutions were aerated with 95% O2/5% CO2, and perfused over the slice at a rate of 2.5 ml/min. […] Extracellular field potentials were recorded in the CA1 region and evoked by stimulating the stratum radiatum. […] AMPAR-mediated EPSCs were recorded at −70 mV; NMDAR-mediated EPSCs were recorded at +40 mV and measured 20 msec after the stimulation artifact when the EPSC is primarily NMDAR-mediated (11,13). Statistical significance was assessed using ANOVA on 5 min bins of EPSCs, and post hoc Fisher's LSD where appropriate. […]

Another assay concerns the target T2, CRF-R1 (Homo sapiens, UniProt P34998).
T2 sequence (P34998 24-415): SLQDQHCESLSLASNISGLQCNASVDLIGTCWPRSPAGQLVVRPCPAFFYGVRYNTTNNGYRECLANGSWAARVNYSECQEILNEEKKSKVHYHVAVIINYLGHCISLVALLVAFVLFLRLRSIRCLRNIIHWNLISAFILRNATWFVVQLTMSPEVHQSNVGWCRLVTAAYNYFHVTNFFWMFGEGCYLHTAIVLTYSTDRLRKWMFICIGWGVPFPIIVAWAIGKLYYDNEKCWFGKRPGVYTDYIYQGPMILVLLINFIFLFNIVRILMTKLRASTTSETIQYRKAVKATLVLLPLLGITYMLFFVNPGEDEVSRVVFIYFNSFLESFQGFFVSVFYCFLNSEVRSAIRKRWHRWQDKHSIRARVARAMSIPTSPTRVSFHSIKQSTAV
The conditions noted are these: in words; cited from earlier work.

[4] abbreviates: peptide 1 μM for 8 min, small Ih (non-responding) dopamine neurons.
Where [5] appears, read: peptide bath applied 1 μM for 8 min, large Ih (CRF-responding) dopamine neurons.

“Also recorded” adds a separate entry of the source. Where no end group is shown, it is not given here.

Usually EC50 stands for the concentration giving half of the maximal effect. As to `N[C@@H](CCC(=O)O)C(=O)O` [glutamate], in the assay with NMDARs, the concentration for a half-maximal effect (EC50) was around 1 µM.

For the molecule “CRF fragment (6-33): CRF fragment that competes with CRF at the CRF-BP; CRF-BP inhibitor (ISLDLTFHLLREVLEMARAEQLAQQAHS; Corticoliberin; UniProt P06850 159-186, looked up, fragment)”, in the assay with CRF-BP, the “affinity for CRF-BP” value is listed as “high-affinity binding”. Moreover, in assay [1] (CRF fragment (6-33) 1 μM for 10 min co-applied with CRF, n=5), the “block of CRF-induced potentiation of NMDAR-mediated EPSCs” value (shortened to “block”) is listed as “did not potentiate; also recorded: inhibits”.

For the molecule `CCCCN(CC)c1nc(C)nc2c1c(C)cn2-c1c(C)cc(C)cc1C` [CP-154,526], the “hippocampal field potential vs. baseline with CRF plus antagonist” value in assay [2] (CRF 1 μM plus 3 μM CP-154,526, n=5, P>0.05) is listed as 82.9±6.9%. Also, in assay [1] (CP-154,526 3 μM for 15 min, CRF 1 μM, n=6), the “block” value was “failed to block; also recorded: does not block”.

For the molecule “CRF: Corticotrophin-releasing factor, a 41 amino acid peptide; human/rat CRF (Tocris) (SEEPPISLDLTFHLLREVLEMARAEQLAQQAHSNRKLMEII)”, the “activation of cAMP” value in the assay on cAMP in Ltk- cells is “maximal activation”. In assay [2] (CRF 1 μM, 15 mins after CRF onset, n=4, P<0.05), the “hippocampal field potential vs. baseline” value was found to be 143.0±7.7%. In assay [1] (CRF 100 nM, 25 mins after CRF onset, n=6, P<0.05), the “NMDAR-mediated EPSC size vs. baseline” value amounted to 128.01±15.7%. Also, the “potentiation of NMDAR-mediated EPSCs” value is “did not observe any effect; also recorded: do not exhibit CRF-induced potentiation” in assay [1] (setting [4]); “large, slowly developing, and transient potentiation; also recorded: exhibit CRF-induced potentiation” in assay [1] (setting [5]). The “potentiation of AMPAR-mediated EPSCs” value in assay [3] is reported as “did not potentiate; also recorded: does not potentiate”.

With “Urocortin II: CRF-like peptide binding selectively to CRF-R2 (IVLSLDVPIGLLQILLEQARARAAREQATTNARILARVGHC; ends and bridges not checked; UniProt Q96RP3 72-112, looked up)”, the “affinity for CRF-R1” value with CRF-R1 is listed as “low affinity”. Also, the “affinity for CRF-BP” value with CRF-BP is reported as “low affinity”. Besides, the “potentiation of NMDAR-mediated EPSCs” value in assay [1] (setting [5]) was “no potentiation; also recorded: does not potentiate”.

In the case of `Nc1ncnc2c1ncn2[C@@H]1O[C@@H]2CO[P@@](O)(=S)O[C@H]2[C@H]1O` [Rp-cAMPs], the “block” value in assay [1] (Rp-cAMPs 100 μM in patch pipette, CRF 1 μM, n=4) is on record as “still observed a significant potentiation; also recorded: is not blocked”.

As for “ovine CRF: differs from human/rat CRF by 7 amino acids; binds CRF-R2, much lower affinity for CRF-BP”, in the assay with CRF-BP, the “affinity for CRF-BP” value is “much lower affinity”. The “potentiation of NMDAR-mediated EPSCs” value was “no potentiation” in assay [1] (setting [5]) and “does not induce potentiation” in assay [1] (peptide bath applied 1 μM for 8 min, large Ih (CRF-responding) dopamine neurons, listed as bovine CRF).

For `COc1ccc2c(c1)CC[C@@H]1[C@@H]2CC[C@]2(C)[C@@H](NCCCCCCN3C(=O)C=CC3=O)CC[C@@H]12` [U-73122], the “block” value in assay [1] (U-73122 1 μM for 10 min before and during CRF application, n=5) is given as “no potentiation”; in assay [1] (U-73122 1 μM for 10 min before and during CRF application, n=5, listed as U73122), “is blocked”.

Turning to “Urocortin: CRF-like peptide, possible endogenous CRF-R2 ligand, also binds CRF-BP (DNPSLSIDLTFHLLRTLLELARTQSQRERAEQNRIIFDSV; ends and bridges not checked; UniProt P55089 83-122, looked up)”, the “affinity for CRF-R1” value with CRF-R1 is listed as “slightly lower affinity than CRF-R2”. For the same molecule, the “affinity for CRF-BP” value with CRF-BP was “higher affinity than CRF”. Besides, the “potentiation of NMDAR-mediated EPSCs” value in assay [1] (setting [4]) is “not”; in assay [1] (setting [5]) it was “potentiation; also recorded: potentiates”.

Turning to Antisauvagine-30, the “NMDAR-mediated EPSC size vs. baseline with CRF in presence of antagonist” value in assay [1] (Antisauvagine-30 30 nM, CRF 1 μM, 15 mins after CRF onset, n=3, P>0.05) is 113.9±17.7%. Further, the “block” value in assay [1] (Antisauvagine-30 1M for 15 min (so in the source), CRF 1 μM, n=5) is “inhibited; also recorded: blocks”.
